Laboratory results: BigSolDB 2.1

settings: in acetic acid, 288.15 K

| Compound | solubility (mole fraction) |
| --- | --- |
| O=C(O)CCCCCC(=O)O | 0.0648 |
| O=C(O)CCCCCCCC(=O)O | 0.0333 |
| O=C(O)CCCC(=O)O | 0.173 |
| O=C(O)CCCCCCC(=O)O | 0.0115 |

same assay, conditions: in acetic acid, 293.15 K

| Compound | solubility (mole fraction) |
| --- | --- |
| O=C(O)CCCCCC(=O)O | 0.0794 |
| O=C(O)CCCCCCCC(=O)O | 0.04 |
| O=C(O)CCCC(=O)O | 0.196 |
| O=C(O)CCCCCCC(=O)O | 0.0145 |

same assay, conditions: in acetic acid, 298.15 K

| Compound | solubility (mole fraction) |
| --- | --- |
| O=C(O)CCCCCC(=O)O | 0.0964 |
| O=C(O)CCCCCCCC(=O)O | 0.0524 |
| O=C(O)CCCC(=O)O | 0.221 |
| O=C(O)CCCCCCC(=O)O | 0.0176 |

same assay, conditions: in acetic acid, 303.15 K

| Compound | solubility (mole fraction) |
| --- | --- |
| O=C(O)CCCCCC(=O)O | 0.119 |
| O=C(O)CCCCCCCC(=O)O | 0.0631 |
| O=C(O)CCCC(=O)O | 0.241 |
| O=C(O)CCCCCCC(=O)O | 0.0216 |

same assay, conditions: in acetic acid, 308.15 K

| Compound | solubility (mole fraction) |
| --- | --- |
| O=C(O)CCCCCC(=O)O | 0.14 |
| O=C(O)CCCCCCCC(=O)O | 0.0761 |
| O=C(O)CCCC(=O)O | 0.276 |
| O=C(O)CCCCCCC(=O)O | 0.0264 |

same assay, conditions: in acetic acid, 315.15 K

| Compound | solubility (mole fraction) |
| --- | --- |
| O=C(O)CCCCCC(=O)O | 0.169 |
| O=C(O)CCCCCCCC(=O)O | 0.0923 |
| O=C(O)CCCC(=O)O | 0.31 |
| O=C(O)CCCCCCC(=O)O | 0.0329 |

same assay, conditions: in acetic acid, 318.15 K

| Compound | solubility (mole fraction) |
| --- | --- |
| O=C(O)CCCCCC(=O)O | 0.199 |
| O=C(O)CCCCCCCC(=O)O | 0.111 |
| O=C(O)CCCC(=O)O | 0.341 |
| O=C(O)CCCCCCC(=O)O | 0.0405 |

same assay, conditions: in acetic acid, 323.15 K

| Compound | solubility (mole fraction) |
| --- | --- |
| O=C(O)CCCCCC(=O)O | 0.232 |
| O=C(O)CCCCCCCC(=O)O | 0.133 |
| O=C(O)CCCC(=O)O | 0.385 |
| O=C(O)CCCCCCC(=O)O | 0.0501 |

same assay, conditions: in acetone, 288.15 K

| Compound | solubility (mole fraction) |
| --- | --- |
| O=C(O)CCCCCC(=O)O | 0.0546 |
| O=C(O)CCCCCCCC(=O)O | 0.029 |
| O=C(O)CCCC(=O)O | 0.183 |
| O=C(O)CCCCCCC(=O)O | 0.0092 |

same assay, conditions: in acetone, 293.15 K

| Compound | solubility (mole fraction) |
| --- | --- |
| O=C(O)CCCCCC(=O)O | 0.0752 |
| O=C(O)CCCCCCCC(=O)O | 0.0331 |
| O=C(O)CCCC(=O)O | 0.207 |
| O=C(O)CCCCCCC(=O)O | 0.0127 |

same assay, conditions: in acetone, 298.15 K

| Compound | solubility (mole fraction) |
| --- | --- |
| O=C(O)CCCCCC(=O)O | 0.118 |
| O=C(O)CCCCCCCC(=O)O | 0.04 |
| O=C(O)CCCC(=O)O | 0.237 |
| O=C(O)CCCCCCC(=O)O | 0.0167 |

same assay, conditions: in acetone, 303.15 K

| Compound | solubility (mole fraction) |
| --- | --- |
| O=C(O)CCCCCC(=O)O | 0.146 |
| O=C(O)CCCCCCCC(=O)O | 0.0494 |
| O=C(O)CCCC(=O)O | 0.264 |
| O=C(O)CCCCCCC(=O)O | 0.021 |

same assay, conditions: in acetone, 308.15 K

| Compound | solubility (mole fraction) |
| --- | --- |
| O=C(O)CCCCCC(=O)O | 0.174 |
| O=C(O)CCCCCCCC(=O)O | 0.0634 |
| O=C(O)CCCC(=O)O | 0.329 |
| O=C(O)CCCCCCC(=O)O | 0.025 |

same assay, conditions: in acetone, 315.15 K

| Compound | solubility (mole fraction) |
| --- | --- |
| O=C(O)CCCCCC(=O)O | 0.202 |
| O=C(O)CCCCCCCC(=O)O | 0.0806 |
| O=C(O)CCCC(=O)O | 0.324 |
| O=C(O)CCCCCCC(=O)O | 0.0301 |

same assay, conditions: in acetone, 318.15 K

| Compound | solubility (mole fraction) |
| --- | --- |
| O=C(O)CCCCCC(=O)O | 0.224 |
| O=C(O)CCCCCCCC(=O)O | 0.103 |
| O=C(O)CCCC(=O)O | 0.375 |
| O=C(O)CCCCCCC(=O)O | 0.0356 |

same assay, conditions: in acetone, 323.15 K

| Compound | solubility (mole fraction) |
| --- | --- |
| O=C(O)CCCCCC(=O)O | 0.246 |
| O=C(O)CCCCCCCC(=O)O | 0.143 |
| O=C(O)CCCC(=O)O | 0.417 |
| O=C(O)CCCCCCC(=O)O | 0.0405 |

same assay, conditions: in ethanol, 288.15 K

| Compound | solubility (mole fraction) |
| --- | --- |
| O=C(O)CCCCCC(=O)O | 0.0677 |
| O=C(O)CCCCCCCC(=O)O | 0.0534 |
| O=C(O)CCCC(=O)O | 0.136 |
| O=C(O)CCCCCCC(=O)O | 0.0208 |

same assay, conditions: in ethanol, 293.15 K

| Compound | solubility (mole fraction) |
| --- | --- |
| O=C(O)CCCCCC(=O)O | 0.0851 |
| O=C(O)CCCCCCCC(=O)O | 0.0601 |
| O=C(O)CCCC(=O)O | 0.158 |
| O=C(O)CCCCCCC(=O)O | 0.0253 |

same assay, conditions: in ethanol, 298.15 K

| Compound | solubility (mole fraction) |
| --- | --- |
| O=C(O)CCCCCC(=O)O | 0.104 |
| O=C(O)CCCCCCCC(=O)O | 0.0707 |
| O=C(O)CCCC(=O)O | 0.176 |
| O=C(O)CCCCCCC(=O)O | 0.031 |

same assay, conditions: in ethanol, 303.15 K

| Compound | solubility (mole fraction) |
| --- | --- |
| O=C(O)CCCCCC(=O)O | 0.126 |
| O=C(O)CCCCCCCC(=O)O | 0.0851 |
| O=C(O)CCCC(=O)O | 0.201 |
| O=C(O)CCCCCCC(=O)O | 0.0375 |

same assay, conditions: in ethanol, 308.15 K

| Compound | solubility (mole fraction) |
| --- | --- |
| O=C(O)CCCCCC(=O)O | 0.15 |
| O=C(O)CCCCCCCC(=O)O | 0.102 |
| O=C(O)CCCC(=O)O | 0.228 |
| O=C(O)CCCCCCC(=O)O | 0.0454 |

same assay, conditions: in ethanol, 315.15 K

| Compound | solubility (mole fraction) |
| --- | --- |
| O=C(O)CCCCCC(=O)O | 0.178 |
| O=C(O)CCCCCCCC(=O)O | 0.124 |
| O=C(O)CCCC(=O)O | 0.274 |
| O=C(O)CCCCCCC(=O)O | 0.0553 |

same assay, conditions: in ethanol, 318.15 K

| Compound | solubility (mole fraction) |
| --- | --- |
| O=C(O)CCCCCC(=O)O | 0.204 |
| O=C(O)CCCCCCCC(=O)O | 0.15 |
| O=C(O)CCCC(=O)O | 0.322 |
| O=C(O)CCCCCCC(=O)O | 0.0683 |

same assay, conditions: in ethanol, 323.15 K

| Compound | solubility (mole fraction) |
| --- | --- |
| O=C(O)CCCCCC(=O)O | 0.237 |
| O=C(O)CCCCCCCC(=O)O | 0.185 |
| O=C(O)CCCC(=O)O | 0.35 |
| O=C(O)CCCCCCC(=O)O | 0.0847 |

same assay, conditions: in ethyl acetate, 288.15 K

| Compound | solubility (mole fraction) |
| --- | --- |
| O=C(O)CCCCCC(=O)O | 0.0233 |
| O=C(O)CCCCCCCC(=O)O | 0.00911 |
| O=C(O)CCCC(=O)O | 0.0861 |
| O=C(O)CCCCCCC(=O)O | 0.00238 |

same assay, conditions: in ethyl acetate, 293.15 K

| Compound | solubility (mole fraction) |
| --- | --- |
| O=C(O)CCCCCC(=O)O | 0.0321 |
| O=C(O)CCCCCCCC(=O)O | 0.0113 |
| O=C(O)CCCC(=O)O | 0.105 |
| O=C(O)CCCCCCC(=O)O | 0.00302 |

same assay, conditions: in ethyl acetate, 298.15 K

| Compound | solubility (mole fraction) |
| --- | --- |
| O=C(O)CCCCCC(=O)O | 0.0517 |
| O=C(O)CCCCCCCC(=O)O | 0.0162 |
| O=C(O)CCCC(=O)O | 0.123 |
| O=C(O)CCCCCCC(=O)O | 0.00389 |

same assay, conditions: in ethyl acetate, 303.15 K

| Compound | solubility (mole fraction) |
| --- | --- |
| O=C(O)CCCCCC(=O)O | 0.0718 |
| O=C(O)CCCCCCCC(=O)O | 0.0232 |
| O=C(O)CCCC(=O)O | 0.133 |
| O=C(O)CCCCCCC(=O)O | 0.00513 |

same assay, conditions: in ethyl acetate, 308.15 K

| Compound | solubility (mole fraction) |
| --- | --- |
| O=C(O)CCCCCC(=O)O | 0.0802 |
| O=C(O)CCCCCCCC(=O)O | 0.0326 |
| O=C(O)CCCC(=O)O | 0.146 |
| O=C(O)CCCCCCC(=O)O | 0.00641 |

same assay, conditions: in ethyl acetate, 315.15 K

| Compound | solubility (mole fraction) |
| --- | --- |
| O=C(O)CCCCCC(=O)O | 0.0904 |
| O=C(O)CCCCCCCC(=O)O | 0.0524 |
| O=C(O)CCCC(=O)O | 0.176 |
| O=C(O)CCCCCCC(=O)O | 0.00819 |

same assay, conditions: in ethyl acetate, 318.15 K

| Compound | solubility (mole fraction) |
| --- | --- |
| O=C(O)CCCCCC(=O)O | 0.102 |
| O=C(O)CCCCCCCC(=O)O | 0.0663 |
| O=C(O)CCCC(=O)O | 0.227 |
| O=C(O)CCCCCCC(=O)O | 0.00978 |

same assay, conditions: in ethyl acetate, 323.15 K

| Compound | solubility (mole fraction) |
| --- | --- |
| O=C(O)CCCCCC(=O)O | 0.128 |
| O=C(O)CCCCCCCC(=O)O | 0.0964 |
| O=C(O)CCCC(=O)O | 0.307 |
| O=C(O)CCCCCCC(=O)O | 0.0118 |
